Values after ≈ are worked out from the molar mass of the structure shown. Active and inactive are the calls of the source. The calls are words filed in the database; no cut-off is given here.
Key:
Escherichia coli [1] = experiment: Induction of Escherichia coli AB1157 DNA degradation after 1 hr by agarose gel electrophoresis
Albumin = Albumin (Bos taurus, UniProt P02769); experiment: Induction of Bos taurus (bovine) serum albumin degradation after 1 hr by SDS-PAGE analysis; conditions: cattle
[2] = Antioxidant activity assessed as SOD-like activity measuring inhibition of superoxide radical production at 50 ug after 30 min by NBT reduction assay; type: functional
Saccharomyces cerevisiae [3] = experiment: Antimicrobial activity against Saccharomyces cerevisiae after 24 hr by CLSI liquid dilution method; type: functional
Staphylococcus aureus [4] = experiment: Antimicrobial activity against Staphylococcus aureus after 24 hr by CLSI liquid dilution method; type: functional
Pseudomonas aeruginosa [5] = experiment: Antimicrobial activity against Pseudomonas aeruginosa after 24 hr by CLSI liquid dilution method; type: functional
Bacillus subtilis [6] = experiment: Antimicrobial activity against Bacillus subtilis after 24 hr by CLSI liquid dilution method; type: functional
Escherichia coli [7] = experiment: Antimicrobial activity against Escherichia coli after 24 hr by CLSI liquid dilution method; type: functional
Saccharomyces cerevisiae [8] = experiment: Antimicrobial activity against Saccharomyces cerevisiae at 100 ug after 24 hr by cup diffusion technique; type: functional; conditions: read-out: DIZ
Staphylococcus aureus [9] = experiment: Antimicrobial activity against Staphylococcus aureus at 100 ug after 24 hr by cup diffusion technique; type: functional; conditions: read-out: DIZ
Pseudomonas aeruginosa [10] = experiment: Antimicrobial activity against Pseudomonas aeruginosa after 24 hr by cup diffusion technique; type: functional
Bacillus subtilis [11] = experiment: Antimicrobial activity against Bacillus subtilis at 100 ug after 24 hr by cup diffusion technique; type: functional; conditions: read-out: DIZ
Escherichia coli [12] = experiment: Antimicrobial activity against Escherichia coli at 100 ug after 24 hr by cup diffusion technique; type: functional; conditions: read-out: DIZ
[13] = Antioxidant activity assessed as DPPH scavenging activity at 50 ug after 30 min by spectrophotometry; type: functional

Albumin, sequence (P02769 whole entry): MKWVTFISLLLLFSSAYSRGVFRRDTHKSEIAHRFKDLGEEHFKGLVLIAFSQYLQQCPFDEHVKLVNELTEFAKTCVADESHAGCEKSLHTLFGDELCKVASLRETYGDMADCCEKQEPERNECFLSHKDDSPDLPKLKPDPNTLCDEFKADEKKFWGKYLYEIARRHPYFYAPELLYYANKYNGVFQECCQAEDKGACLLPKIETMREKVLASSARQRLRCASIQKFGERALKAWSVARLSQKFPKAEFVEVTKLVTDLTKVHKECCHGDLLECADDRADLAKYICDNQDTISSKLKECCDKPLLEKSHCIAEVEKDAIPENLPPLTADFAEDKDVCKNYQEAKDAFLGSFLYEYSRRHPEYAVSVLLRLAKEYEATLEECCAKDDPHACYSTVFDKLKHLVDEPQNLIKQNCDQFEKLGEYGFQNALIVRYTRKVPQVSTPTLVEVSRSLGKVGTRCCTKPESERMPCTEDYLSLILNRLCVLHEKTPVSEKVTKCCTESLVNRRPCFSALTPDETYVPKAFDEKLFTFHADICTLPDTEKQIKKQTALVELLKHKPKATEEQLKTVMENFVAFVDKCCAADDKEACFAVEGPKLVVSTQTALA

Row | SMILES | Activity (Escherichia coli [1]) | Activity (Albumin) | inhibition [2] [%] | MIC (Saccharomyces cerevisiae [3]) [mg/L] | MIC (Staphylococcus aureus [4]) [mg/L] | MIC (Pseudomonas aeruginosa [5]) [mg/L] | MIC (Bacillus subtilis [6]) [mg/L] | MIC (Escherichia coli [7]) [mg/L] | zone of inhibition at 100 µg/disc (Saccharomyces cerevisiae [8]) [mm] | zone of inhibition at 100 µg/disc (Staphylococcus aureus [9]) [mm] | diameter of the inhibition zone (DIZ) (Pseudomonas aeruginosa [10]) [mm] | zone of inhibition at 100 µg/disc (Bacillus subtilis [11]) [mm] | zone of inhibition at 100 µg/disc (Escherichia coli [12]) [mm] | Activity [13] [%]
1 | N=C(N)c1ccc(-c2ccc(-c3ccco3)o2)cc1 [4-(2,2'-BIFURAN-5-YL)BENZAMIDINE] | Active | Active | 39.7 | 15 (≈ 59.5 µM) | 20 (≈ 79.3 µM) | 15 (≈ 59.5 µM) | 15 (≈ 59.5 µM) | 20 (≈ 79.3 µM) | 11 | 8 | 10 | 9 | 6 | –
2 | N#Cc1ccc(-c2ccc(-c3ccco3)o2)cc1 [4-(2,2'-BIFURAN-5-YL)BENZONITRILE] | Active | Active | 42.4 | 2.5 (≈ 10.6 µM) | 2 (≈ 8.5 µM) | 5 (≈ 21.3 µM) | 2.5 (≈ 10.6 µM) | 2.5 (≈ 10.6 µM) | 16 | 18 | 16 | 19 | 18 | –
3 | N#Cc1ccc(-c2ccc(-c3cccs3)s2)cc1 [4-(2,2'-BITHIOPHEN-5-YL)BENZONITRILE] | Active | Active | 57.8 | 10 (≈ 37.4 µM) | 20 (≈ 74.8 µM) | 10 (≈ 37.4 µM) | 20 (≈ 74.8 µM) | 15 (≈ 56.1 µM) | 13 | 9 | 12 | 12 | 10 | 61.8
4 | N=C(N)c1ccc(-c2ccc(-c3cccs3)s2)cc1 [4-(2,2'-BITHIOPHENE-5-YL)BENZAMIDINE] | Active | Not Active | 48.1 | 10 (≈ 35.2 µM) | 15 (≈ 52.7 µM) | 20 (≈ 70.3 µM) | 15 (≈ 52.7 µM) | 10 (≈ 35.2 µM) | 12 | 8 | 8 | 9 | 11 | 51.9
5 | N=C(N)c1ccc(-c2ccc(-c3cccs3)o2)cc1 [4-[5-(THIOPHEN-2-YL)FURAN-2-YL]BENZAMIDINE] | – | Active | 53.7 | 7.5 (≈ 27.9 µM) | 10 (≈ 37.3 µM) | 15 (≈ 55.9 µM) | 10 (≈ 37.3 µM) | 15 (≈ 55.9 µM) | 12 | 10 | 9 | 11 | 9 | 57.7
6 | N#Cc1ccc(-c2ccc(-c3cccs3)o2)cc1 [4-[5-(THIOPHEN-2-YL)FURAN-2-YL]BENZONITRILE] | Active | Not Active | 46.9 | 10 (≈ 39.8 µM) | 15 (≈ 59.7 µM) | 15 (≈ 59.7 µM) | 10 (≈ 39.8 µM) | 15 (≈ 59.7 µM) | 15 | 12 | 16 | 14 | 12 | 53.1
7 | N=C(N)c1ccc(-c2ccc(-c3ccco3)o2)nc1 [6-(2,2'-BIFURAN-5-YL)NICOTINAMIDINE] | Active | Not Active | 44.6 | 10 (≈ 39.5 µM) | 15 (≈ 59.2 µM) | 15 (≈ 59.2 µM) | 15 (≈ 59.2 µM) | 15 (≈ 59.2 µM) | 12 | 6 | 7 | 7 | 9 | –
8 | N#Cc1ccc(-c2ccc(-c3ccco3)o2)nc1 [6-(2,2'-BIFURAN-5-YL)NICOTINONITRILE] | Active | Not Active | 34.9 | 2 (≈ 8.47 µM) | 2.5 (≈ 10.6 µM) | 5 (≈ 21.2 µM) | 5 (≈ 21.2 µM) | 7.5 (≈ 31.7 µM) | 20 | 17 | 16 | 16 | 14 | –
9 | N#Cc1ccc(-c2ccc(-c3cccs3)s2)nc1 [6-(2,2'-BITHIOPHEN-5-YL)NICOTINONITRILE] | Active | Not Active | 52.9 | 2.5 (≈ 9.32 µM) | 15 (≈ 55.9 µM) | 7.5 (≈ 27.9 µM) | 10 (≈ 37.3 µM) | 15 (≈ 55.9 µM) | 19 | 13 | 15 | 12 | 13 | 55.4
10 | N=C(N)c1ccc(-c2ccc(-c3cccs3)s2)nc1 [6-(2,2'-BITHIOPHENE-5-YL)NICOTINAMIDINE] | Active | Active | 51.4 | 5 (≈ 17.5 µM) | 15 (≈ 52.6 µM) | 15 (≈ 52.6 µM) | 15 (≈ 52.6 µM) | 10 (≈ 35 µM) | 14 | 10 | 9 | 7 | 10 | 58.2
11 | N=C(N)c1ccc(-c2ccc(-c3cccs3)o2)nc1 [6-[5-(THIOPHEN-2-YL)FURAN-2-YL]NICOTINAMIDINE] | Active | Active | 44.2 | 15 (≈ 55.7 µM) | 10 (≈ 37.1 µM) | 20 (≈ 74.3 µM) | 15 (≈ 55.7 µM) | 15 (≈ 55.7 µM) | 10 | 11 | 7 | 5 | 8 | –
12 | N#Cc1ccc(-c2ccc(-c3cccs3)o2)nc1 [6-[5-(THIOPHEN-2-YL)FURAN-2-YL]NICOTINONITRILE] | Active | Active | 40.3 | 10 (≈ 39.6 µM) | 15 (≈ 59.5 µM) | 10 (≈ 39.6 µM) | 15 (≈ 59.5 µM) | 10 (≈ 39.6 µM) | 16 | 12 | 16 | 13 | 14 | –
13 | CC1(C)S[C@@H]2[C@H](NC(=O)[C@H](N)c3ccccc3)C(=O)N2[C@H]1C(=O)O [AMPICILLIN] | – | – | – | 7.5 (≈ 21.5 µM) | 10 (≈ 28.6 µM) | 15 (≈ 42.9 µM) | 15 (≈ 42.9 µM) | 10 (≈ 28.6 µM) | 17 | 12 | 12 | 18 | 16 | –

From ChEMBL document CHEMBL3045539, “Synthesis, DNA affinity, and antimicrobial activity of 4-substituted phenyl-2,2-bichalcophenes and aza-analogues” (Med Chem Res, 2012)
